Consider two compounds from US6335354B2, “Aminopyridines and methods of using thereof” (CoCensys Inc., priority 2000, dated 2002).

As a reminder, the ED50 is the dose that gives a 50% effect, or the effect in half of the subjects.

Experiment [1] concerns maximal electroshock-induced seizures (MES). The experiment in a line: maximum electroshock seizure test (MES). Format: in vivo. The settings on record: Mus musculus, iv; mice, injected i.v. 15 minutes before the test procedure; read-out: ED50 (the dose protecting 50% of animals), protection against MES. From the text:
The compounds of the present invention may be tested for in vivo anticonvulsant activity after i.v., p.o. or i.p. injection using a number of anticonvulsant tests in mice, including the maximum electroshock seizure test (MES). Maximum electroshock seizures were induced in male NSA mice weighing between 15-20 g and male Sprague-Dawley rats weighing between 200-225 g by application of current (50 mA, 60 pulses/sec, 0.8 msec pulse width, 1 sec duration, D.C., mice; 99 mA. 125 pulses/sec, 0.8 msec pulse width, 2 sec duration, D.C., rats) using a Ugo Basile FCT device (Model 7801). Mice were restrained by gripping the loose skin on their dorsal surface and saline-coated corneal electrodes were held lightly against the two corneae. Rats were allowed free movement on the bench top and ear-clip electrodes were used. […] A tonic seizure was defined as a hindlimb extension in excess of 90 degrees from the plane of the body. Results were treated in a quantal manner. The ability of N^3-[4-(4-fluorophenoxy)benzyl]pyridine-2,3-diamine to block maximal electroshock-iniduced seizures (MES) was determined according to the method above. N^3-[4-(4-Fluorophenoxy)benzyl]pyridine-2,3-diamine was injected i.v. to mice 15 minutes before the test procedure.

Experiment [2] deals with T1, hSkM1 isoform of Na+ channels (Homo sapiens, UniProt P35499).
T1 construct: expressed in transfected cells
Description: Electrophysiological assay, whole-cell patch-clamp recordings of voltage-sensitive Na+ currents. It is filed as cell-based. The conditions noted are these: HEK-293 cells stably expressing hSkM1. As for the experimental part: Cell preparalion. HEK-293 cells stably expressing the hSkM1 isoform of Na^+ channels (generous gift from Dr. A. L. George, Vanderbilt University Medical School) were cultured using standard techniques, as described previously (Verdoorn, T. A, et al., Neuron 4:919-928 (1990)). For electrophysiology, cells were plated onto 35 mm Petri dishes (pre-coated with poly-D-lysine) at a density of 1:40 on the day of re-seeding from confluent cultures. Our experience has been that cells are suitable for recordings for 2-3 days after plating.
Patch-clamp recordings of voltage-sensitive Na^+ currenis. Whole-cell voltage-clamp recordings were made using conventional patch-clamp techniques (Hamill et al, Pfluegers Arch. 391:85-100 (1981)) with an Axopatch 200A amplifier (Axon Instruments, Foster City, Calif.). Recordings were made within 2-3 hours after neuron dissociation. The recording chamber was continuously superfused with the external solution (150 mM NaCl, 5.4 mM KCl, 1.8 mM CaCl2, 1 mM MgCl2, 10 mM HEPES, 10 mM glucose, pH 7.4 (NaOH)) at a speed of about 1 mL/min. Recording pipettes were pulled from thick-walled capillaries (WPI, Sarasota, Fla.) and fire-polished. The pipette resistances ranged from 1 to 3 MΩ when the pipettes were filled with internal solution containing (in mM): 110 CsF, 10 NaCl, 5 MgCl2, 11 EGTA, 10 HEPES, pH adjusted to 7.4 with CsOH. Osmolality was set with a difference of 15-20 mmol/kg between external and internal solutions (lower inside the cell). Drugs and intervening wash-outs were applied through a linear array of flow pipes (Drummond Microcaps, 2 μL, 64-mm length). […] Currents were recorded at room temperature (22-25° C.), filtered at 5 kHz with an active 8-pole Bessel filter (Frequency Devices, Haverhill, Mass.), digitized at 10-50 μs intervals, and stored using Digidata 1200 analog/digital interface with Pclamp6/Clampex software (Axon Instruments). […] The inhibitory potency of drugs was assessed by measuring reductions in the peak amplitude of Na^+ currents induced by increasing concentrations of compounds tested. […]
(The patch-clamp technique gives a direct electrical read-out from membranes.)

T1 sequence (P35499 whole entry, canonical isoform): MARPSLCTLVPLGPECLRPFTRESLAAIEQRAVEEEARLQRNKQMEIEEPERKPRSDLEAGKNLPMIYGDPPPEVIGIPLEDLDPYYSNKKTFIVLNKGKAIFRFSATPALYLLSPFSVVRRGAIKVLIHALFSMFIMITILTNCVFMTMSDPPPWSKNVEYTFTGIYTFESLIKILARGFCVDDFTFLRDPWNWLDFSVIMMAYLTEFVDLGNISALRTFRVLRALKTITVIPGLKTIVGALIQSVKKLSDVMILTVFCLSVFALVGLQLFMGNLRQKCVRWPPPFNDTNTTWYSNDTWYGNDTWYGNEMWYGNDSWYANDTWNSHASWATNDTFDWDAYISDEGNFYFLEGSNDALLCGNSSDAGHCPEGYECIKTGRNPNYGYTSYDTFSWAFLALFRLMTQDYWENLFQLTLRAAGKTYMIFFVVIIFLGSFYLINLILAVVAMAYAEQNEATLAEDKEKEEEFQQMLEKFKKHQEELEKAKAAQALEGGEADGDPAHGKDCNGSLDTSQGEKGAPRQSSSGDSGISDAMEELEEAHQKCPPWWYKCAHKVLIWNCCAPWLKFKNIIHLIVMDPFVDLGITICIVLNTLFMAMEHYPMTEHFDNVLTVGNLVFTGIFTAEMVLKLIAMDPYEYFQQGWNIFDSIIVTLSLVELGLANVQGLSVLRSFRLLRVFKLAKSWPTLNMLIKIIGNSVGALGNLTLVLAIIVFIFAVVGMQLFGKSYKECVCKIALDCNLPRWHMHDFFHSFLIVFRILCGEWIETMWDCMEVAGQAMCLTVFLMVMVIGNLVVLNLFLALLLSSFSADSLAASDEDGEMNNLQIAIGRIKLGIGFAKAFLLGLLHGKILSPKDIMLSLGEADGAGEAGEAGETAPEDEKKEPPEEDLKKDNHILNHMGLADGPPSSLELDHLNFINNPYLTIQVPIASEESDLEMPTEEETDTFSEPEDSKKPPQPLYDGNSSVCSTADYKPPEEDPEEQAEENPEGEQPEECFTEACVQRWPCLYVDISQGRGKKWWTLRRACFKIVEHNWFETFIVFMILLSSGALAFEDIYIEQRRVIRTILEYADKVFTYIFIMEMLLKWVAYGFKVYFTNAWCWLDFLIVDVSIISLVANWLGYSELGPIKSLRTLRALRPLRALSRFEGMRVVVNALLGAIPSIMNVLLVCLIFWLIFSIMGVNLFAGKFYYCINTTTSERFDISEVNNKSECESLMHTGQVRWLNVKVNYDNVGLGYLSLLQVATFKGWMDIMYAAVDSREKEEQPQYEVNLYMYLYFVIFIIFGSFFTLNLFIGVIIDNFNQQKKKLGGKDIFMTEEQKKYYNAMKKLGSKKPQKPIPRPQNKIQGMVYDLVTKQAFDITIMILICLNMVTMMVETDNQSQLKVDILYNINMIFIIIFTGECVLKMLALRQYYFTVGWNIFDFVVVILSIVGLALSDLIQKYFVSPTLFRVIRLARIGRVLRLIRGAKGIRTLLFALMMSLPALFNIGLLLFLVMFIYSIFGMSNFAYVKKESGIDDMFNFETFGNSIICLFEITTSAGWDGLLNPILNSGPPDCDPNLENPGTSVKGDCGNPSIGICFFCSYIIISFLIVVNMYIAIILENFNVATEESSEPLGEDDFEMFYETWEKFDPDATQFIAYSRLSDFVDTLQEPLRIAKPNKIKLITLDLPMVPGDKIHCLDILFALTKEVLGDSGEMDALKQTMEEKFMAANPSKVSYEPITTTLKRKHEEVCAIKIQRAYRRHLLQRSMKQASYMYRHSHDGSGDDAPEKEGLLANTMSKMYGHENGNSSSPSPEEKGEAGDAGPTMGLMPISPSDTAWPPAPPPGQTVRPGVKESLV

Regarding `Nc1ncccc1NCc1ccc(OCc2cccc(F)c2)cc1` [N^3-[4-(3-Fluorobenzyloxy)benzyl]pyridine-2,3-diamine], the ED50 in experiment [1] came out at 2.9 mg/kg.
Regarding `Nc1ncccc1NCc1ccc(Oc2ccc(F)cc2)cc1` [N^3-[4-(4-Fluorophenoxy)benzyl]pyridine-2,3-diamine], the “inhibition of voltage-gated sodium currents” value in experiment [2] was “dose-dependent inhibition”. For the same compound, the Ki in experiment [2] (inactivated state, read-out: apparent antagonist dissociation constant Ki (the concentration of a compound that produces half maximal inhibition) for inactivated sodium channels) stood at 60 nM. Besides, in experiment [2] (resting state), the “potency towards Na+ channels in their resting states” value was “weak potency”.
